Columns and labels:
hNLRP3 = molecular target: T1, hNLRP3 (Homo sapiens, UniProt Q96P20); test: Measurement of IL-1β production in PMA-differentiated THP-1 cells (hNLRP3 agonist; ELISA, alternative and hTRF procedures); type: cell-based
T1 construct: THP-1 cells were purchased from the American Type Culture Collection; host or cells: THP-1 cells, PMA-differentiated
Protocol: Measurement of IL-1β production in PMA-differentiated THP-1 cells THP-1 cells were purchased from the American Type Culture Collection and sub-cultured according to instructions from the supplier. Prior to experiments, cells were cultured in RPMI 1640 containing 10% heat inactivated FBS, penicillin (100 units/ml) and streptomycin (100 μg/ml), and maintained in log phase prior to experimental setup. Prior to the experiment THP-1 were treated with PMA (Phorbol 12-myristate 13-acetate) ([…]) for 24 hours. The day of the experiment the media was removed and attaching cells were treated with trypsin for 2 minutes, cells were then collected, washed with PBS (phosphate buffer saline), spin down, resuspended in 2% heat inactivated FBS with RPMI at a concentration of 1×10^6 cells/ml, and 100 μl was plated in a 96 well plate. Compounds were dissolved in dimethyl sulfoxide (DMSO) and added to the culture medium to achieve desired concentration (e.g. 100, 30, 10, 3, 1, 0.3 or 0.1 μM). Cells were incubated with compounds for 4 hours. Cell free supernatant was collected and the production of […] was evaluated by ELISA. A vehicle only control was run concurrently with each experiment. Final DMSO concentration was 1%.
Measurement of IL-1β Production in PMA-Differentiated THP-1 Cells (Alternative Procedure)
THP-1 cells were purchased from the American Type Culture Collection and sub-cultured according to instructions from the supplier. Prior to experiments, cells were cultured in RPMI 1640 containing 10% heat inactivated FBS, penicillin (100 units/ml), streptomycin (100 μg/ml), HEPES (10 mM) and sodium pyruvate (1 mM) and maintained in log phase prior to experimental setup. Prior to the experiment, THP-1 cells were treated with PMA (Phorbol 12-myristate 13-acetate) (20 μg/ml) overnight. The day of the experiment, the media was removed and attached cells were treated with trypsin for 2 minutes, cells were then collected, washed with PBS (phosphate buffer saline), pelleted by centrifugation and resuspended in 2% heat inactivated FBS with RPMI at a concentration of 50,000 cells/well in a 384 well plate. Cell free supernatant was collected and the production of IL-1β was evaluated by ELISA. Compounds were dissolved in dimethyl sulfoxide (DMSO) and added to the culture medium to achieve desired concentration (e.g. 100, 30, 10, 3, 1, 0.3 or 0.1 μM). Cells were incubated with compounds for 2 hours. A vehicle only control was run concurrently with each experiment. Final DMSO concentration was 1%.
Measurement of IL-1β Production—hTRF Protocol (Second Alternative Procedure)
Serial dilutions of compounds in DMSO were added to low volume 384 well plates at 100 nl/well using an ECHO 550 acoustic dispenser (Labcyte) to achieve final starting concentration of 10 μM in assay.
THP-1 cells in RPMI (Gibco, 11875) media with 10% FBS at a density of 1×10^6 cell/ml in a T175 flask were treated with a final concentration of phorbol 12-myristate 13-acetate (PMA) (Sigma, P1585) of 50 ng/ml overnight at 37° C. at 5% CO2 for differentiation. Cells were harvested the next day after rinsing well with dPBS using 0.5% trypsin. A cell solution was prepared of 1×10^6 cells/ml for 50,000 cells in 50 μl/well in RPMI media with 2% FBS. Cells were plated using a multichannel pipette onto the compound dilutions in Greiner, 384 well, black clear bottom tissue culture treated plates (781090). The plates were incubated in 37° C. incubator at 5% CO2 for 2 hours.
After the 2 hour incubation, the cell plates were spun in the centrifuge for 5 minutes at 1200 rpm. Using the Felix (CyBio), 8 μl of the supernatant was transferred to 384 well, low volume, white proxy plates. (Perkin Elmer, 6008230). A human IL1beta hTRF kit was used to analyze the supernatant (CISBIO, 62HIL1BPEG). The kit instructions were followed for preparing the IL1Beta standard curve and then the antibodies from the kit were diluted 1:40 rather than 1:20 as kit instructed.

TLR7 = molecular target: T2, TLR7 (Homo sapiens, UniProt Q9NYK1); test: In vitro human TLR7 binding reporter assay (HEK-Blue, NF-kB/AP1-inducible SEAP); type: cell-based; details: activity range symbols
T2 construct: host or cells: HEK-Blue cells (human HEK) co-expressing TLR7 and an NF-kB/AP1-inducible SEAP reporter
T2 sequence (Q9NYK1 27-1049): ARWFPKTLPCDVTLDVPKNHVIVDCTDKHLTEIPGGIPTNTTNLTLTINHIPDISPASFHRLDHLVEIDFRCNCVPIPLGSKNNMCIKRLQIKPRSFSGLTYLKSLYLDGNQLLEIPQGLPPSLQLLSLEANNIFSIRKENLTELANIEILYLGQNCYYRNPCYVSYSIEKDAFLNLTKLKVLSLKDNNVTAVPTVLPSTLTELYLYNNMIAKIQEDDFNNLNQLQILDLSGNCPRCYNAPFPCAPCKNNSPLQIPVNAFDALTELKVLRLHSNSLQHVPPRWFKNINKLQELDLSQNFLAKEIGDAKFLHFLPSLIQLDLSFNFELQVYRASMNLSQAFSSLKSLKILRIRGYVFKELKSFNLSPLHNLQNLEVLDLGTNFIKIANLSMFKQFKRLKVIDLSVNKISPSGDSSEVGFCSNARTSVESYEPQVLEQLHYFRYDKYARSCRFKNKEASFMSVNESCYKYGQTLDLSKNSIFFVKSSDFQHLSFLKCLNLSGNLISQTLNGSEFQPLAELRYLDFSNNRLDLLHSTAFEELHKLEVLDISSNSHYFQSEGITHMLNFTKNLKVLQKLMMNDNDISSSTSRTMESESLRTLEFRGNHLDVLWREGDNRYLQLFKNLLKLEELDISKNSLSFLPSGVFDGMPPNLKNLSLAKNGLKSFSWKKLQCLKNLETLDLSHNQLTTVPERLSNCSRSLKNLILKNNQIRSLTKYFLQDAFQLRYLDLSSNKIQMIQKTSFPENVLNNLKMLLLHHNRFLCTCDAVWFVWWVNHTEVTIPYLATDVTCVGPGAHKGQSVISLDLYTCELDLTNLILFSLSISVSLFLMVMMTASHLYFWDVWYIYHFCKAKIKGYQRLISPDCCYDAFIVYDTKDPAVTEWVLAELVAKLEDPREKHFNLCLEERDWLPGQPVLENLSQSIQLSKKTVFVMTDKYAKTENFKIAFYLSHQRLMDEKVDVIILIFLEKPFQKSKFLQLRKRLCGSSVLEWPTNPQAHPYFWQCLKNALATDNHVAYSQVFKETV
Protocol: In Vitro Human TLR7 and TLR8 Binding Reporter Assays
Logarithmically-growing human HEK-Blue cells co-expressing a TLR7 or TLR8 gene and a NF-kB/AP1-inducible SEAP (secreted embryonic alkaline phosphatase; Invivogen, San Diego, CA) reporter gene are added to individual wells of a 384-well plate (15,000 cells per 20 μL per well) and maintained for 24 h at 37° C., 5% CO2. Test compounds or DMSO are distributed to separate wells the next day using acoustic liquid handling technology (100 nL per well) and cells are subsequently incubated for 18 h at 37° C., 5% CO2. Cellular SEAP production is measured using an Envision plate reader instrument thirty minutes after adding freshly-made Quanti-Blue reagent (prepared by following manufacturer instructions; Invivogen, San Diego, CA) to the HEK-Blue TLR Nf-kB-SEAP cell reactions. All EC50 values (half-maximal effective concentration) are determined using proprietary data analysis software.

T1 sequence (Q96P20 whole entry): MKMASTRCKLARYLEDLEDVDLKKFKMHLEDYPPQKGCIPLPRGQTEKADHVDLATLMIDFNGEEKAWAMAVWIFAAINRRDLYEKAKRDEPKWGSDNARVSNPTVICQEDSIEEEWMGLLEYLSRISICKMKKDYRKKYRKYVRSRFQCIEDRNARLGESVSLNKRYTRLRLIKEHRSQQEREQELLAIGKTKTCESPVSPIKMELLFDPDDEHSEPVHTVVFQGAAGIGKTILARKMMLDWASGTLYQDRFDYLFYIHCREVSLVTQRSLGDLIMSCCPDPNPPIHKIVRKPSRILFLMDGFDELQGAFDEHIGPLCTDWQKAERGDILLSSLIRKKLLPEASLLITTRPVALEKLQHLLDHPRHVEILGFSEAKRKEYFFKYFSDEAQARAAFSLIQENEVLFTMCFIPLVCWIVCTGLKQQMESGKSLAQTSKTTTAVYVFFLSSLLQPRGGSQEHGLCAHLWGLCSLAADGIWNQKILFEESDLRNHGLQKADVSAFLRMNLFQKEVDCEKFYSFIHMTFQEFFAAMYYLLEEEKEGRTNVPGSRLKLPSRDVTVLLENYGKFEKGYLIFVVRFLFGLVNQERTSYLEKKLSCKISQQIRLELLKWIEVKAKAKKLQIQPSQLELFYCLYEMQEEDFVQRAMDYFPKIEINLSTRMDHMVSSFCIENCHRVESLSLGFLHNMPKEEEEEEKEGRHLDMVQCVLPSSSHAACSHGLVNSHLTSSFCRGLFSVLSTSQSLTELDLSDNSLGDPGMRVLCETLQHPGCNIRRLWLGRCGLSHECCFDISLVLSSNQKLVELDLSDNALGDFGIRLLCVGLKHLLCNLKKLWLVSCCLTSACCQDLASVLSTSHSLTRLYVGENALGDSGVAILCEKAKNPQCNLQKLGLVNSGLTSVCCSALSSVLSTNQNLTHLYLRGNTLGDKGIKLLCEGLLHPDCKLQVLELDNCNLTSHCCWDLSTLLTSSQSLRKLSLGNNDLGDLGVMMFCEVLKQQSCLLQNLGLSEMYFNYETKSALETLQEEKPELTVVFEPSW

SMILES | EC50 (hNLRP3) [µM] | EC50 (TLR7) [µM]
Nc1nc2cc(-c3cc[nH]n3)ccc2c2[nH]c(CNC(=O)C3CC3)nc12 [Compound 105] | 0.69 | –
CC(C)C(=O)NCc1nc2c(N)nc3cc(-c4cc[nH]n4)ccc3c2[nH]1 [Compound 107] | 0.64 | –
CC(=O)NCc1nc2c(N)nc3cc(-c4cc[nH]n4)ccc3c2[nH]1 [Compound 113, N-((4-Amino-7-(1H-pyrazol-3-yl)-1H-imidazo[4,5-c]quinolin-2-yl)methyl)acetamide] | 0.56 | –
CCN(Cc1nc2c(N)nc3cc(-c4cc[nH]n4)ccc3c2[nH]1)C(=O)c1ccccc1 [Compound 126] | 2.1 | –
CCN(Cc1nc2c(N)nc3cc(-n4nccn4)ccc3c2[nH]1)C(=O)OC(C)(C)C [Compound 135] | 4.6 | –
Nc1nc2cc(-c3cc[nH]n3)ccc2c2[nH]c(CN3CC(c4ccccc4)CC3=O)nc12 (stereo not drawn) [Compound 137] | 5.4 | –
COc1ccc(-c2ccc3c(c2)nc(N)c2nc(CN4CCCC4=O)[nH]c23)cc1 [Compound 292, 1-[[4-amino-7-(4-methoxyphenyl)-1H-imidazo[4,5-c]quinolin-2-yl]methyl]pyrrolidin-2-one] | 4.48 | –
COc1ccc(-c2ccc3c(c2)nc(N)c2nc(CN4CCCC4=O)[nH]c23)cn1 [Compound 304, 1-[[4-amino-7-(6-methoxypyridin-3-yl)-1H-imidazo[4,5-c]quinolin-2-yl]methyl]pyrrolidin-2-one] | 36.4 | –
Nc1nc2cc(-c3ccsc3)ccc2c2[nH]c(CN3CCCC3=O)nc12 [Compound 308, 1-[(4-amino-7-thiophen-3-yl-1H-imidazo[4,5-c]quinolin-2-yl)methyl]pyrrolidin-2-one] | 1.06 | –
Nc1nc2ccccc2c2c1nc(CN1CCCC1=O)n2CCCC(=O)N1CCSCC1 [Compound 345] | 64 | –
CN1CCN(Cc2nc3c(N)nc4cc(-c5cc[nH]n5)ccc4c3[nH]2)C(=O)C1 [Compound 350] | 10 | –
Nc1nc2cc(-c3cc[nH]n3)ccc2c2[nH]c(CN3CCCCC3=O)nc12 [Compound 352] | 2.23 | –
CC(C)NCc1nc2c(N)nc3cc(-c4cc[nH]n4)ccc3c2[nH]1 [Compound 421] | 0.24 | –
CCN(Cc1nc2c(N)nc3cc(-c4cccs4)ccc3c2[nH]1)C(=O)OC(C)(C)C [Compound 424] | 0.79 | > 100
CCN(Cc1nc2c(N)nc3cc(-c4cccs4)ccc3c2[nH]1)C(C)=O [Compound 425] | 0.44 | > 100
Nc1nc2cc(-c3cccnc3)ccc2c2[nH]c(CN3CCCCC3=O)nc12 [Compound 426] | 4.3 | > 100
Nc1nc2cc(Br)ccc2c2[nH]c(CN3CCCCC3=O)nc12 [Compound 428] | 5.1 | > 100
CC(C)(C)OC(=O)N1CCN(Cc2nc3c(N)nc4cc(-c5cccnc5)ccc4c3[nH]2)C(=O)C1 [Compound 433] | 11.5 | –

Further molecules by falling EC50 (hNLRP3), results first:

EC50 (hNLRP3) [µM] | EC50 (TLR7) [µM] | SMILES
19.3 | > 100 | CCCn1c(CN(CC)C(C)=O)nc2c(N)nc3cc(Br)ccc3c21 [Compound 435]
12.3 | – | Nc1nc2cc(-c3cccnc3F)ccc2c2[nH]c(CN3CCCC3=O)nc12 [Compound 307, 1-[[4-amino-7-(2-fluoropyridin-3-yl)-1H-imidazo[4,5-c]quinolin-2-yl]methyl]pyrrolidin-2-one]
~10 | – | CN1CCN(Cc2nc3c(N)nc4cc(-c5cc[nH]n5)ccc4c3[nH]2)C(=O)C1 [Compound 432]
5.9 | > 100 | CCN(C(C)=O)C(C)c1nc2c(N)nc3cc(Br)ccc3c2[nH]1 (stereo not drawn) [Compound 182, N-[1-(4-amino-7-bromo-1H-imidazo[4,5-c]quinolin-2-yl)ethyl]-N-ethylacetamide]
5.8 | > 100 | Nc1nc2cc(-n3cccn3)ccc2c2[nH]c(CN3CCOC3=O)nc12 [Compound 429]
3.5 | – | CCN(Cc1nc2c(N)nc3cc(-c4cc[nH]n4)ccc3c2[nH]1)C(=O)CO [Compound 133]
2.17 | – | Nc1nc2cc(-c3cc[nH]n3)ccc2c2[nH]c(CN3CCOCC3=O)nc12 [Compound 351]
1.16 | – | CS(=O)(=O)NCc1nc2c(N)nc3cc(-c4cc[nH]n4)ccc3c2[nH]1 [Compound 116]

From patent US12351580B2, “NLRP3 modulators” (Innate Tumor Immunity, Inc., priority 2017, dated 2025)
